# According to US12552825B2 (Zikani Therapeutics, Inc., priority 2019, dated 2026):
# Key:
# Assay type in all cases: cell-based
# A. baumannii MP-15 = assay: MIC determination by CLSI broth dilution, A. baumannii MP-15; settings: Acinetobacter baumannii, MP15, strain MP-15, read-out: MIC A. baumanii MP-15
# P. aeruginosa MP-3 = assay: MIC determination by CLSI broth dilution, P. aeruginosa MP-3; settings: Pseudomonas aeruginosa, MP3, strain MP-3
# K. pneumoniae MP-546 = assay: MIC determination by CLSI broth dilution, K. pneumoniae MP-546; settings: Klebsiella pneumoniae, MP546, CLSI broth dilution; strain MP-546
# E. coli MP-4 = assay: MIC determination by CLSI broth dilution, E. coli MP-4; settings: Escherichia coli, MP4, CLSI broth dilution; strain MP-4
# S. aureus MP-12 = assay: microbe, parasite or virus in culture; settings: Staphylococcus aureus, MP12, read-out: MIC S. aureus MP-12
Structure (SMILES),MIC (A. baumannii MP-15) [µg/mL],MIC (P. aeruginosa MP-3) [µg/mL],MIC (K. pneumoniae MP-546) [µg/mL],MIC (E. coli MP-4) [µg/mL],MIC (S. aureus MP-12) [µg/mL]
"CO[C@]1(C)C[C@@H](C)CN[C@@H](CN(C)C)COC(=O)C(C)(C)C(=O)[C@H](C)[C@H]1O[C@@H]1O[C@H](C)C[C@H](N(C)C)[C@H]1O [Compound 17, (3S,6R,8R,9R,10R)-9-(((2S,3R,4S,6R)-4-(dimethylamino)-3-hydroxy-6-methyltetrahydro-2H-pyran-2-yl)oxy)-3-((dimethylamino)methyl)-8-methoxy-6,8,10,12,12-pentamethyl-1-oxa-4-azacyclotridecane-11,13-dione]",> 32,> 32,> 32,> 32,> 32
"CCN(CC)CCC[C@H]1COC(=O)C(C)(C)C(=O)[C@H](C)[C@@H](O[C@@H]2O[C@H](C)C[C@H](N(C)C)[C@H]2O)[C@](C)(OC)C[C@@H](C)CN1C [Compound 19, (3S,6R,8R,9R,10R)-3-(3-(diethylamino)propyl)-9-(((2S,3R,4S,6R)-4-(dimethylamino)-3-hydroxy-6-methyltetrahydro-2H-pyran-2-yl)oxy)-8-methoxy-4,6,8,10,12,12-hexamethyl-1-oxa-4-azacyclotridecane-11,13-dione]",> 32,> 32,< 4,< 4,4 to 32
"CCN(C)CCC[C@H]1COC(=O)C(C)(C)C(=O)[C@H](C)[C@@H](O[C@@H]2O[C@H](C)C[C@H](N(C)C)[C@H]2O)[C@](C)(OC)C[C@@H](C)CN1C [Compound 20, (3S,6R,8R,9R,10R)-9-(((2S,3R,4S,6R)-4-(dimethylamino)-3-hydroxy-6-methyltetrahydro-2H-pyran-2-yl)oxy)-3-(3-(ethyl(methyl)amino)propyl)-8-methoxy-4,6,8,10,12,12-hexamethyl-1-oxa-4-azacyclotridecane-11,13-dione]",> 32,> 32,< 4,< 4,4 to 32
CCC(O)C(C)CN1CCC(C[C@@H]2COC(=O)C(C)(C)C(=O)[C@H](C)[C@@H](O[C@@H]3O[C@H](C)C[C@H](N(C)C)[C@H]3O)[C@](C)(OC)C[C@@H](C)CN2C)CC1 (stereo partly shown) [Compound 35],> 32,> 32,< 4,< 4,4 to 32
CO[C@]1(C)C[C@@H](C)CN(C)[C@H](CC2CCN(CC(C)(C)C)CC2)C(C)(C)OC(=O)C(C)(C)C(=O)[C@H](C)[C@H]1O[C@@H]1O[C@H](C)C[C@H](N(C)C)[C@H]1O [Compound 36],4 to 32,> 32,4 to 32,< 4,4 to 32
CO[C@]1(C)C[C@@H](C)CN(C)[C@@H](CC2CCN(CC(C)(C)C)CC2)C(C)(C)OC(=O)C(C)(C)C(=O)[C@H](C)[C@H]1O[C@@H]1O[C@H](C)C[C@H](N(C)C)[C@H]1O [Compound 37],> 32,> 32,> 32,4 to 32,> 32
CCCN1CCC(C[C@@H]2[C@@H](C)OC(=O)C(C)(C)C(=O)[C@H](C)[C@@H](O[C@@H]3O[C@H](C)C[C@H](N(C)C)[C@H]3O)[C@](C)(OC)C[C@@H](C)CN2C)CC1 [Compound 38],> 32,> 32,< 4,< 4,> 32
CO[C@]1(C)C[C@@H](C)CN(C)[C@H](CC2CCN(CC(C)(C)C)CC2)[C@@H](C)OC(=O)C(C)(C)C(=O)[C@H](C)[C@H]1O[C@@H]1O[C@H](C)C[C@H](N(C)C)[C@H]1O [Compound 39],> 32,> 32,4 to 32,< 4,> 32
CO[C@]1(C)C[C@@H](C)CN(C)[C@H](CC2CCN(CC[C@@H](C)CCC=C(C)C)CC2)[C@@H](C)OC(=O)C(C)(C)C(=O)[C@H](C)[C@H]1O[C@@H]1O[C@H](C)C[C@H](N(C)C)[C@H]1O [Compound 40],4 to 32,> 32,4 to 32,< 4,4 to 32
CCCN1CCC(C[C@H]2COC(=O)C(C)(C)C(=O)[C@H](C)[C@@H](O[C@@H]3O[C@H](C)C[C@H](N(C)C)[C@H]3O)[C@](C)(OC)C[C@@H](C)CN2C)CC1 [Compound 41],> 32,> 32,4 to 32,4 to 32,> 32
CCCN1CCC(C[C@@H]2COC(=O)C(C)(C)C(=O)[C@H](C)[C@@H](O[C@@H]3O[C@H](C)C[C@H](N(C)C)[C@H]3O)[C@](C)(OC)C[C@@H](C)CN2C)CC1 [Compound 42],> 32,> 32,< 4,< 4,4 to 32
CO[C@]1(C)C[C@@H](C)CN(C)[C@@H](CC2CCN(C(=O)C3CC3)CC2)COC(=O)C(C)(C)C(=O)[C@H](C)[C@H]1O[C@@H]1O[C@H](C)C[C@H](N(C)C)[C@H]1O [Compound 44],> 32,> 32,> 32,> 32,4 to 32
CO[C@]1(C)C[C@@H](C)CN(C)[C@H](CC2CCN(C(=O)C3CC3)CC2)COC(=O)C(C)(C)C(=O)[C@H](C)[C@H]1O[C@@H]1O[C@H](C)C[C@H](N(C)C)[C@H]1O [Compound 45],> 32,> 32,4 to 32,4 to 32,4 to 32
CCCN1CCC(C[C@H]2N(C)C[C@H](C)C[C@@](C)(OC)[C@H](O[C@@H]3O[C@H](C)C[C@H](N(C)C)[C@H]3O)[C@@H](C)C(=O)C(C)(C)C(=O)OC2(C)C)CC1 [Compound 46],> 32,> 32,< 4,< 4,4 to 32
CO[C@]1(C)C[C@@H](C)CN(C)[C@H](CC2CCN(C(C)C)CC2)C(C)(C)OC(=O)C(C)(C)C(=O)[C@H](C)[C@H]1O[C@@H]1O[C@H](C)C[C@H](N(C)C)[C@H]1O [Compound 47],> 32,> 32,4 to 32,< 4,4 to 32
CCCN1CCC(C[C@@H]2N(C)C[C@H](C)C[C@@](C)(OC)[C@H](O[C@@H]3O[C@H](C)C[C@H](N(C)C)[C@H]3O)[C@@H](C)C(=O)C(C)(C)C(=O)OC2(C)C)CC1 [Compound 48],> 32,> 32,4 to 32,< 4,> 32
CO[C@]1(C)C[C@@H](C)CN(C)[C@H](CC2CCN(C)CC2)[C@@H](C)OC(=O)C(C)(C)C(=O)[C@H](C)[C@H]1O[C@@H]1O[C@H](C)C[C@H](N(C)C)[C@H]1O [Compound 49],> 32,> 32,4 to 32,< 4,> 32
CO[C@]1(C)C[C@@H](C)CN(C)[C@H](CC2CCN(CC(C)(C)C)CC2)COC(=O)C(C)(C)C(=O)[C@H](C)[C@H]1O[C@@H]1O[C@H](C)C[C@H](N(C)C)[C@H]1O [Compound 54],> 32,> 32,< 4,< 4,4 to 32
CO[C@]1(C)C[C@@H](C)CN(C)[C@@H](CC2CCN(CC(C)(C)C)CC2)COC(=O)C(C)(C)C(=O)[C@H](C)[C@H]1O[C@@H]1O[C@H](C)C[C@H](N(C)C)[C@H]1O [Compound 66],> 32,> 32,4 to 32,4 to 32,> 32
CO[C@]1(C)C[C@@H](C)CN(C)[C@@H](CC2CCN(CC(C)C)CC2)COC(=O)C(C)(C)C(=O)[C@H](C)[C@H]1O[C@@H]1O[C@H](C)C[C@H](N(C)C)[C@H]1O [Compound 67],> 32,> 32,4 to 32,4 to 32,> 32
CO[C@]1(C)C[C@@H](C)CN(C)[C@@H](CC2CCN(C(C)C)CC2)COC(=O)C(C)(C)C(=O)[C@H](C)[C@H]1O[C@@H]1O[C@H](C)C[C@H](N(C)C)[C@H]1O [Compound 68],> 32,> 32,4 to 32,4 to 32,> 32
CO[C@]1(C)C[C@@H](C)CN(C)[C@@H](CC2CCN(C3CC3)CC2)COC(=O)C(C)(C)C(=O)[C@H](C)[C@H]1O[C@@H]1O[C@H](C)C[C@H](N(C)C)[C@H]1O [Compound 69],> 32,> 32,4 to 32,4 to 32,4 to 32
CCCCCCCN1CCC(C[C@H]2COC(=O)C(C)(C)C(=O)[C@H](C)[C@@H](O[C@@H]3O[C@H](C)C[C@H](N(C)C)[C@H]3O)[C@](C)(OC)C[C@@H](C)CN2C)CC1 [Compound 70],> 32,> 32,4 to 32,< 4,> 32
CO[C@]1(C)C[C@@H](C)CN(C)[C@@H](CC2CCN(CC[C@@H](C)CCC=C(C)C)CC2)COC(=O)C(C)(C)C(=O)[C@H](C)[C@H]1O[C@@H]1O[C@H](C)C[C@H](N(C)C)[C@H]1O [Compound 71],> 32,> 32,> 32,4 to 32,> 32
CO[C@]1(C)C[C@@H](C)CN(C)[C@@H](CC2CCN(CC3CCCCC3)CC2)COC(=O)C(C)(C)C(=O)[C@H](C)[C@H]1O[C@@H]1O[C@H](C)C[C@H](N(C)C)[C@H]1O [Compound 72],> 32,> 32,4 to 32,< 4,> 32
"CO[C@]1(C)C[C@@H](C)CN(C)[C@@H](CN2CCN(S(C)(=O)=O)CC2)[C@H](C)OC(=O)C(C)(C)C(=O)[C@H](C)[C@H]1O[C@@H]1O[C@H](C)C[C@H](N(C)C)[C@H]1O [Compound 80, (2S,3S,6R,8R,9R,10R)-9-(((2S,3R,4S,6R)-4-(dimethylamino)-3-hydroxy-6-methyltetrahydro-2H-pyran-2-yl)oxy)-8-methoxy-2,4,6,8,10,12,12-heptamethyl-3-((4-(methylsulfonyl)piperazin-1-yl)methyl)-1-oxa-4-azacyclotridecane-11,13-dione]",> 32,> 32,> 32,> 32,4 to 32
